Laboratory results reported in patent US6328728A, “Composition and method for enhancing electrotransport agent delivery” (Alza Corporation, priority 1997, dated 2001).

Assay: Measurement of circular dichroism (mean residue ellipticity at 222 nm)
Type: physicochemical
Conditions: 32° C.
Source text: In general, the structure of a polypeptide in an aqueous buffered solution is in constant flux between portions thereof being random coil and alpha-helix configurations. For the polypeptides used in the following examples, the predominant structure is a random coil since the alpha-helix configuration is unstable in the absence of bound surfactant. According to the present invention adding surfactant to an aqueous solution of a polypeptide stabilizes the alpha-helix configuration. Circular dichroism is a measurement of the amount of the alpha-helix configured polypeptide present in the solution. Thus, circular dichroism provides an indirect measurement of the degree of binding of the surfactant to the polypeptide. (See, for example, Epand R. M., Epand R. F., Orlowski R. C., Schuleter R. J., Boni L. T. and Hui S. W., Biochemistry 22, 5074-5084 (1983); Hui, S. W., Epand R. M., Dell K. R., Epand R. F. and Orlowski R. C., Biochimica Biophysica Acta 772, 264-272 (1984); Epand R. M., Epand R. F., and Orlowski R. C., International Journal Peptide Protein Research 25 105-111; Epand R. M., Epand R. F., Orlowski R. C., Seyler J. K. and Colescott R. L., Biochemistry 25, 1964-1968; Epand R. M., Seyler J. K. and Orlowski R. C., European Journal Biochemistry 159, 125-127 (1986); Wiersema P. H., Loeb A. L. and Overbeek, J., Colloid Interface Science 22, 78-99 (1966)).
The surfactant/peptide circular dichroism (CD) spectra were obtained in a 2 mm path-length cell (110-Q-2 Model, AVIV, Lakewood, N.J.) at 32° C. The cell was initially loaded with 0.60 mL of a solution containing about 0.25 mg/mL of the peptide in 10 mM sodium chloroacetate (pH 3.5) or 10 mM sodium borate (pH 9.0). The buffers were selected to minimize the effect of the temperature on the pH of the solution and to minimize light absorption, thereby optimizing the signal-to-noise ratio (SNR). The peptide concentration was determined by spectrophotometry, with log-log correction for light scattering. The surfactant concentration was increased step-wise by titration of concentrated surfactant stock directly into the CD cell, followed by eight inversions of the cell, with the air bubble providing the mixing turbulence. After mixing, the cell was placed into the AVIV 62 CD spectrometer (AVIV, Lakewood, N.J.). In order to approximate temperature and chemical equilibrium, the sample remained in the spectrometer 5 minutes before a reading was taken. The CD spectrum was taken using a band pass of 1 nm, a data interval of 1 nm, and a data averaging time of 10 seconds. The mean residue ellipticity is the ellipticity divided by the path length in cm times the amino acid residue concentration in decimoles/cm^3. See Methods in Enzymology, Vol 130, pp 208-269, Yang et al, "Calculation of Protein Conformation from Circular Dichroism" (1986).
The measurement procedures described above were conducted on an aqueous solution of the protein insulinotropin, with TWEEN® 20 (MW=1126 g/mol) as the surfactant, with the following modifications. The insulinotropin donor solution concentration was 0.12 mg/mL. One test was run in 10 mM sodium borate at pH 9.0 and another test in 10 mM sodium chloroacetate at pH 3.5.
Fractional changes (%δ) are defined as the difference between the reading at a given surfactant concentration (Ec) minus the reading at zero surfactant (E0), the quantity divided by the difference between the reading at saturated surfactant concentration (Es) minus the reading at zero surfactant (E0), i. e. %δ=(Ec -E0)/(Es-E0).
The measurement procedures described earlier were conducted on an aqueous solution of insulinotropin as the agent, and TWEEN® 40 (molecular weight 1282 g/mol) as the surfactant with the following changes. The insulinotropin concentration was initially 0.29 mg/mL, and 0.21 mg/mL after the final TWEEN® 40 addition and the temperature was held at 32° C. Two tests were conducted at two different concentrations of TWEEN® 40. […]

## Salmon Calcitonin [reference compound]
pH 3.5, 12 mM sodium chloroacetate, dodecyl sulfobetaine 0, calcitonin 0.087 mM
  Ellipticity (mean residue at 222 nm): -4052 deg-cm^2 /dmol
pH 3.5, 12 mM sodium chloroacetate, dodecyl sulfobetaine 2.44 mM, calcitonin 0.085 mM
  Ellipticity (mean residue at 222 nm): -4270 deg-cm^2 /dmol
pH 3.5, 12 mM sodium chloroacetate, dodecyl sulfobetaine 4.76 mM, calcitonin 0.083 mM
  Ellipticity (mean residue at 222 nm): -7984 deg-cm^2 /dmol
pH 3.5, 12 mM sodium chloroacetate, dodecyl sulfobetaine 5.52 mM, calcitonin 0.082 mM
  Ellipticity (mean residue at 222 nm): -8744 deg-cm^2 /dmol
pH 3.5, 12 mM sodium chloroacetate, dodecyl sulfobetaine 6.25 mM, calcitonin 0.081 mM
  Ellipticity (mean residue at 222 nm): -9436 deg-cm^2 /dmol
pH 3.5, 12 mM sodium chloroacetate, dodecyl sulfobetaine 7.69 mM, calcitonin 0.080 mM
  Ellipticity (mean residue at 222 nm): -10475 deg-cm^2 /dmol
pH 3.5, 12 mM sodium chloroacetate, dodecyl sulfobetaine 9.09 mM, calcitonin 0.079 mM
  Ellipticity (mean residue at 222 nm): -11072 deg-cm^2 /dmol
pH 3.5, 12 mM sodium chloroacetate, dodecyl sulfobetaine 10.4 mM, calcitonin 0.078 mM
  Ellipticity (mean residue at 222 nm): -11460 deg-cm^2 /dmol
pH 3.5, 12 mM sodium chloroacetate, dodecyl sulfobetaine 13.0 mM, calcitonin 0.076 mM
  Ellipticity (mean residue at 222 nm): -11924 deg-cm^2 /dmol
pH 3.5, 12 mM sodium chloroacetate, dodecyl sulfobetaine 15.5 mM, calcitonin 0.073 mM
  Ellipticity (mean residue at 222 nm): -12070 deg-cm^2 /dmol
pH 3.5, 12 mM sodium chloroacetate, dodecyl sulfobetaine 21.1 mM, calcitonin 0.069 mM
  Ellipticity (mean residue at 222 nm): -12285 deg-cm^2 /dmol
pH 3.5, 12 mM sodium chloroacetate, dodecyl sulfobetaine 27.7 mM, calcitonin 0.063 mM
  Ellipticity (mean residue at 222 nm): -12133 deg-cm^2 /dmol
pH 5.0, 4 mM piperazine-HCl, dodecyl sulfobetaine 0, calcitonin 0.076 mM
  Ellipticity (mean residue at 222 nm): -3919 deg-cm^2 /dmol
pH 5.0, 4 mM piperazine-HCl, dodecyl sulfobetaine 0.83 mM, calcitonin 0.076 mM
  Ellipticity (mean residue at 222 nm): -3950 deg-cm^2 /dmol
pH 5.0, 4 mM piperazine-HCl, dodecyl sulfobetaine 1.64 mM, calcitonin 0.075 mM
  Ellipticity (mean residue at 222 nm): -4011 deg-cm^2 /dmol
pH 5.0, 4 mM piperazine-HCl, dodecyl sulfobetaine 3.23 mM, calcitonin 0.074 mM
  Ellipticity (mean residue at 222 nm): -5209 deg-cm^2 /dmol
pH 5.0, 4 mM piperazine-HCl, dodecyl sulfobetaine 4.76 mM, calcitonin 0.073 mM
  Ellipticity (mean residue at 222 nm): -7108 deg-cm^2 /dmol
pH 5.0, 4 mM piperazine-HCl, dodecyl sulfobetaine 6.25 mM, calcitonin 0.072 mM
  Ellipticity (mean residue at 222 nm): -8348 deg-cm^2 /dmol
pH 5.0, 4 mM piperazine-HCl, dodecyl sulfobetaine 7.69 mM, calcitonin 0.071 mM
  Ellipticity (mean residue at 222 nm): -9127 deg-cm^2 /dmol
pH 5.0, 4 mM piperazine-HCl, dodecyl sulfobetaine 9.77 mM, calcitonin 0.069 mM
  Ellipticity (mean residue at 222 nm): -9915 deg-cm^2 /dmol
pH 5.0, 4 mM piperazine-HCl, dodecyl sulfobetaine 12.4 mM, calcitonin 0.067 mM
  Ellipticity (mean residue at 222 nm): -10469 deg-cm^2 /dmol
pH 5.0, 4 mM piperazine-HCl, dodecyl sulfobetaine 18.4 mM, calcitonin 0.062 mM
  Ellipticity (mean residue at 222 nm): -10999 deg-cm^2 /dmol
pH 5.0, 4 mM piperazine-HCl, dodecyl sulfobetaine 26.4 mM, calcitonin 0.056 mM
  Ellipticity (mean residue at 222 nm): -11188 deg-cm^2 /dmol
pH 5.0, 4 mM piperazine-HCl, dodecyl sulfobetaine 35.8 mM, calcitonin 0.049 mM
  Ellipticity (mean residue at 222 nm): -11051 deg-cm^2 /dmol
pH 6.5, 15 mM sodium cacodylate, dodecyl sulfobetaine 0, calcitonin 0.071 mmol/l
  Ellipticity (mean residue at 222 nm): -4569 deg-cm^2 /dmol
pH 6.5, 15 mM sodium cacodylate, dodecyl sulfobetaine 3.28 mmol/l, calcitonin 0.070 mmol/l
  Ellipticity (mean residue at 222 nm): -6725 deg-cm^2 /dmol
pH 6.5, 15 mM sodium cacodylate, dodecyl sulfobetaine 6.45 mmol/l, calcitonin 0.068 mmol/l
  Ellipticity (mean residue at 222 nm): -10182 deg-cm^2 /dmol
pH 6.5, 15 mM sodium cacodylate, dodecyl sulfobetaine 9.52 mmol/l, calcitonin 0.067 mmol/l
  Ellipticity (mean residue at 222 nm): -11095 deg-cm^2 /dmol
pH 6.5, 15 mM sodium cacodylate, dodecyl sulfobetaine 12.5 mmol/l, calcitonin 0.066 mmol/l
  Ellipticity (mean residue at 222 nm): -11386 deg-cm^2 /dmol
pH 6.5, 15 mM sodium cacodylate, dodecyl sulfobetaine 18.2 mmol/l, calcitonin 0.064 mmol/l
  Ellipticity (mean residue at 222 nm): -11744 deg-cm^2 /dmol
pH 6.5, 15 mM sodium cacodylate, dodecyl sulfobetaine 28.6 mmol/l, calcitonin 0.061 mmol/l
  Ellipticity (mean residue at 222 nm): -11862 deg-cm^2 /dmol
pH 6.5, 15 mM sodium cacodylate, dodecyl sulfobetaine 42.1 mmol/l, calcitonin 0.056 mmol/l
  Ellipticity (mean residue at 222 nm): -11844 deg-cm^2 /dmol
